Laboratory results: US12318361B2, “Methods for treating cardiovascular diseases” (Olatec Therapeutics LLC, priority 2017, dated 2025)

Tested on: male CD-1 mice, experimental AMI
Assay: Experimental mouse AMI model (30 min ischemia, 24 h reperfusion), dose response and delayed dosing, Example 9
Assay type: in vivo
Conditions: for Infarct size, Change (%) relative to saline group / Infarct size, mean: 24 h; for AWDT, mean / AWST, mean / LVEDD, mean / LVEF, mean / LVESD, mean / LVFS, mean / PWDT, mean / PWST, mean: echo at 24 h
Procedure: Objectives: To determine the efficacy of, (1) a single dose of OLT1177™ (6, 60 and 600 mg/kg) administered at the time of reperfusion (Part A) and, (2) a single dose of 60 mg/kg OLT1177™ administered 60, 120 or 180 minutes after reperfusion in an experimental mouse AMI model.
Methodology: Male CD-1 mice underwent transient surgical ligation of the left coronary artery for 30 minutes followed by reperfusion for 24 hours. A single dose of OLT1177™ (6, 60, or 600 mg/kg) or matching vehicle was administered intraperitoneally (IP) at time of reperfusion (N=5-9/group, Study Part A) or OLT1177™ (60 mg/kg) after a 60-, 120- or 180-minute delay (N=4-7/group, Study Part B). Echocardiography was performed to measure left ventricular (LV) fractional shortening (FS). Infarct size was measured at pathology by triphenyl-tetrazolium-chloride (TTC) and phthalo blue staining and expressed as a percentage of the myocardium at risk.
For the 60-mg/kg dose, OLT1177™ (13 mg/vial) was diluted in 0.65 ml of 0.9% of normal saline solution to reach a concentration of 20 mg/ml. For the 6 mg/kg dose, the 20 mg/ml dose was diluted 10 times (0.1 ml OLT1177™ […]+0.9 ml 0.9% normal saline) to reach a final concentration of 2 mg/ml. For the 600 mg/kg dose, each vial of OLT1177™ (13 mg/vial) was diluted with 0.1 ml of saline, to reach a final concentration of 130 mg/ml. The content of multiple vials was combined. Each respective tube was subjected to a vortex and heating at 37° C. until complete dissolution of the drug substance.
Male mice were dosed with OLT1177™ by the intraperitoneal route at dose levels of 6, 60, or 600 mg/kg (each approximately 33 g mouse received 100 μl of the dosing solution; 150 μl for the higher dose) after the reperfusion was confirmed (Study Part A). In Part B, 60 mg/kg OLT1177™ was injected (100 μl of the dosing solution per mouse) with a delay of 60, 120 or 180 minutes from the time of reperfusion.
Adult out-bred male CD1 mice (8-10 weeks of age) were supplied by Envigo (Indianapolis, IN). A single operator performed all surgeries. Experimental AMI was induced by transient coronary artery ligation for 30 minutes to induce ischemia of the anterior wall and the apex (visible as pallor) followed by reperfusion, and leading to an infarct involving approximately 15% of the left ventricle. Mice were deeply sedated with sodium pentobarbital (70 mg/kg), intubated using a 23 G catheter and placed in the right lateral decubitus. The mice were shaved and the skin was cleaned with povidone solution and isopropyl alcohol. The mice were then connected to a ventilator and a left thoracotomy was performed followed by pericardiectomy and ligation of the proximal left coronary artery. A 1-mm diameter polyethylene tube was inserted inside the ligature knot, secured and left in place to obstruct the coronary flow for 30 minutes. At the end of the ischemic time, the tube was removed and the coronary flow re-establishment was observed. At this time, OLT1177™ at a dose of 6, 60 or 600 mg/kg, or the normal saline (0.9% NaCl) used as vehicle (0.1 ml of total volume) was injected into the peritoneal cavity after the reperfusion was confirmed (Part A). After closure of the thoracic access, the mice were left to recover for 24 hours. Pain management was achieved using buprenorphine (Buprenorphine SR™ Lab, 0.5 mg/kg) injected subcutaneously. For Study Part B, groups of mice were injected with 60 mg/kg of OLT1177™ after 60, 120 or 180 minutes from the moment of reperfusion.
Before sacrifice (24 hours after reperfusion), the mice underwent transthoracic echocardiography under mild anesthesia with sodium pentobarbital (50 mg/kg). Echocardiography was performed with the Vevo770 Imaging System (VisualSonics Inc, Toronto, Ontario, Canada) and a 30 MHz probe. The heart was visualized in B-mode from the parasternal short axis and apical views. The left ventricular (LV) end-diastolic diameter (LVEDD) and LV end-systolic diameters (LVESD) at M-Mode were measured. […]

[1] = 6 mg/kg IP at time of reperfusion (Group 2)
[2] = 60 mg/kg IP administered at 60 minutes (Group 5)
[3] = 60 mg/kg IP administered at 120 minutes (Group 6)
[4] = 60 mg/kg IP at time of reperfusion (Group 3)
[5] = 60 mg/kg IP, Group 7 (N = 4), head prints Administered at 120 Minutes
[6] = 60 mg/kg IP, treatment delay of 60 or 120 minutes, p<0.01
[7] = 600 mg/kg IP at time of reperfusion (Group 4)
[8] = all doses (6, 60, 600 mg/kg) at reperfusion, 24 h after reperfusion, p<0.05

CS(=O)(=O)CCC#N [OLT1177™, 3-methanesulfonyl-propionitrile]
Infarct size, Change (%) relative to saline group [1]: −36% | AWDT, mean [1]: 0.79 mm | AWST, mean [1]: 1.10 mm | LVEDD, mean [1]: 3.71 mm | LVEF, mean [1]: 61.4% | LVESD, mean [1]: 2.52 mm | LVFS, mean [1]: 32.2% | PWDT, mean [1]: 0.86 mm | PWST, mean [1]: 1.12 mm | Infarct size, mean (6 mg/kg IP single dose at time of reperfusion (Group 2)): 9.9% | infarct size (in words) (60 mg/kg IP administered 120 or 180 minutes after reperfusion): not significantly altered | AWDT, mean [2]: 0.85 mm | AWST, mean [2]: 1.18 mm | LVEDD, mean [2]: 4.00 mm | LVEF, mean [2]: 65.3% | LVESD, mean [2]: 2.59 mm | LVFS, mean [2]: 35.5% | PWDT, mean [2]: 0.89 mm | PWST, mean [2]: 1.33 mm | Infarct size, mean (60 mg/kg IP administered at 60 minutes after reperfusion (Group 5)): 4.4% | AWDT, mean [3]: 0.83 mm | AWST, mean [3]: 1.20 mm | LVEDD, mean [3]: 4.07 mm | LVEF, mean [3]: 63.6% | LVESD, mean [3]: 2.68 mm | LVFS, mean [3]: 34.1% | PWDT, mean [3]: 0.87 mm | PWST, mean [3]: 1.26 mm | Infarct size, mean (60 mg/kg IP administered at 120 minutes after reperfusion (Group 6)): 11.1% | Infarct size, mean (60 mg/kg IP administered at 180 minutes after reperfusion (Group 7)): 15.4% | reducing infarct size and preserving LV function, compared with treatment given with no delay (60 mg/kg IP after a 60 minutes delay after reperfusion): equally effective | Infarct size, Change (%) relative to saline group [4]: −67% | AWDT, mean [4]: 0.82 mm | AWST, mean [4]: 1.25 mm | LVEDD, mean [4]: 4.25 mm | LVEF, mean [4]: 59.3% | LVESD, mean [4]: 2.93 mm | LVFS, mean [4]: 31.0% | PWDT, mean [4]: 0.86 mm | PWST, mean [4]: 1.24 mm | Infarct size, mean (60 mg/kg IP single dose at time of reperfusion (Group 3)): 5.1% | AWDT, mean [5]: 0.95 mm | AWST, mean [5]: 1.22 mm | LVEDD, mean [5]: 3.88 mm | LVEF, mean [5]: 51.5% | LVESD, mean [5]: 2.87 mm | LVFS, mean [5]: 26.0% | PWDT, mean [5]: 0.94 mm | PWST, mean [5]: 1.31 mm | LV ejection fraction in comparison to vehicle-treated mice (in words) [6]: significantly improved | LV fractional shortening in comparison to vehicle-treated mice (in words) [6]: significantly improved | drop in fractional shortening (in words) (60 mg/kg IP, treatment delay of 180 minutes): failed to prevent the drop | Infarct size, Change (%) relative to saline group [7]: −61% | AWDT, mean [7]: 0.77 mm | AWST, mean [7]: 1.06 mm | LVEDD, mean [7]: 3.76 mm | LVEF, mean [7]: 61.6% | LVESD, mean [7]: 2.54 mm | LVFS, mean [7]: 33.0% | PWDT, mean [7]: 0.83 mm | PWST, mean [7]: 1.14 mm | Infarct size, mean (600 mg/kg IP single dose at time of reperfusion (Group 4)): 6.0% | infarct size vs vehicle (in words) (6, 60 and 600 mg/kg single IP injection at time of reperfusion, p<0.001): significant reduction | LV ejection fraction relative to vehicle control (in words) [8]: significantly higher | LV fractional shortening relative to vehicle control (in words) [8]: significantly higher | decrease in mean infarct size compared to the vehicle control (high dose 600 mg/kg IP at time of reperfusion): more than 60% | decrease in infarct size compared to the vehicle control (low dose 6 mg/kg IP at time of reperfusion): 36% | decrease in mean infarct size compared to the vehicle control (mid dose 60 mg/kg IP at time of reperfusion): more than 60%
